Data as given in patent US20220235011A1, “PHTHALAZINONE COMPOUNDS AND USE THEREOF” (ST PHARM CO., LTD., priority 2019, published 2022).

Molecular target: T1, Sirt6 (Homo sapiens, UniProt Q8N6T7)
T1 construct: purchased CycLex CY-1156V2
Assay: Measurement of Sirt6 Activity (CycLex Sirt6 Deacetylase Fluorometric Assay Kit)
Type: biochemical
Settings: compound at 10 μM; fluorescence relative to the group without compound treatment (positive control group)
Method: LC-MS (ESI, m/z)=430.1 (M+H^+) Experimental Example 1: Measurement of Sirt6 Activity Compounds having Sirt6 activity were selected using a CycLex Sirt6 Deacetylase Fluorometric Assay Kit (cat. CY-1156V2) manufactured by CycLex.
When a fluorescent-attached acetylated lysine substrate is treated with Sirt6 enzyme, Sirt6 deacetylates the acetylated lysine of the substrate and lysylendopeptidase cleaves the C-terminal peptide bond connected to the lysine, by which fluorescence is emitted. The activity of a compound is calculated by observing the intensity of fluorescence when the compound is treated along with Sirt6 enzyme. When treating the compound, the compound aids in the activity of Sirt6 enzyme, so as to result in stronger fluorescence. Therefore, by calculating the ratio of the stronger fluorescence relative to the fluorescence emitted from the group without compound treatment (i.e., positive control group), relative activity can be calculated.
Activity evaluation was performed according to the following procedure.
The compound whose activity is to be evaluated was prepared by diluting in phosphate-buffered saline (PBS) to 10 times of the desired concentration (e.g., when measuring Sirt6 assay activity at 10 μM, the compound is prepared at a concentration of 100 μM in PBS). 1 μL of a 1 Ox Sirt6 assay buffer, 0.8 μL of 50× fluoro-substrate peptide, 1 μL of nicotinamide adenine dinucleotide (NAD), 1 μL of a developer and 4.2 μL of H2O were mixed to prepare mixtures equal to the number of samples, and 8 μL was dispensed into each Black 384 well. An additional 1 μL of PBS was added to each of a “no enzyme group” and a positive control group, and 1 μL of the compound diluted in PBS was added to an activity evaluation group. Recombinant Sirt6 was 1:8 diluted in a 1×Sirt6 assay buffer, and 1 μL thereof was added to each of the positive control group and the activity evaluation group. 1 μL of the 1×Sirt6 assay buffer was added to the “no enzyme group.” After reacting at room temperature for one hour, results were measured with a fluorescence spectrometer (excitation: 490±10 nm, emission: 530±10 nm) to confirm the presence or absence of Sirt6 activity and measure the intensity of the activity.

T1 sequence (Q8N6T7 whole entry): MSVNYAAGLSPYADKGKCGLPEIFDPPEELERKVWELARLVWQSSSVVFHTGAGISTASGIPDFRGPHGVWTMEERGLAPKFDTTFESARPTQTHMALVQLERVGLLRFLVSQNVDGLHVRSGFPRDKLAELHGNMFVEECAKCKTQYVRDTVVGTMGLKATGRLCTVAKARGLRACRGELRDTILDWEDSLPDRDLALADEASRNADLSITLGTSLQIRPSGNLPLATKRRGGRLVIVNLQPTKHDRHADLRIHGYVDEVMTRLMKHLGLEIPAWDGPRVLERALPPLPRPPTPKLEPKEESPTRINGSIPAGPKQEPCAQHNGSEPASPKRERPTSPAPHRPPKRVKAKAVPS

Row | SMILES | Sirt6 Activity (% activity, 10 μM) [% activity]
1 | CC(C)/[N+]([O-])=C/c1cccc(-c2nn(-c3cc(F)cc(F)c3)c(=O)c3ccccc23)c1 [Example 31, (Z)-1-(3-(3-(3,5-Difluorophenyl)-4-oxo-3,4-dihydrophthalazin-1-yl)phenyl)-N-isopropyl Methanimine Oxide] | 171
2 | COc1ccc(-n2nc(-c3cccc(/C=[N+](\[O-])C(C)C)c3)c3ccccc3c2=O)cc1 [Example 32, (Z)—N-Isopropyl-1-(3-(3-(4-methoxyphenyl)-4-oxo-3,4-dihydrophthalazin-1-yl)phenyl) Methanimine Oxide] | 124
3 | CC(C)/[N+]([O-])=C/c1cccc(-c2nn(-c3ccc(F)c(Cl)c3)c(=O)c3ccccc23)c1 [Example 33, (Z)-1-(3-(3-(3-Chloro-4-fluorophenyl)-4-oxo-3,4-dihydrophthalazin-1-yl)phenyl)-N-isopropyl-methanimine Oxide] | 183
4 | CC(C)(C)/[N+]([O-])=C/c1cccc(-c2nn(-c3ccc(F)c(Cl)c3)c(=O)c3ccccc23)c1 [Example 34, (Z)—N-tert-Butyl-1-(3-(3-(3-chloro-4-fluorophenyl)-4-oxo-3,4-dihydrophthalazin-1-yl)phenyl) Methanimine Oxide] | 176
5 | O=c1c2ccccc2c(-c2cccc(/C=[N+](\[O-])Cc3ccccc3)c2)nn1-c1ccccc1 [Example 35, (Z)—N-Benzyl-1-(3-(4-oxo-3-phenyl-3,4-dihydrophthalazin-1-yl)phenyl)methanimine Oxide] | 113
6 | C/[N+]([O-])=C\c1ccc(-c2nn(-c3ccc(F)cc3)c(=O)c3ccccc23)cc1 [Example 36, (E)-1-(4-(3-(4-Fluorophenyl)-4-oxo-3,4-dihydrophthalazin-1-yl)phenyl)-N-methylmethanimine Oxide] | 142
7 | C/[N+]([O-])=C\c1ccc(-c2nn(-c3ccc(F)cc3)c(=O)c3ccccc23)c(F)c1 [Example 38, (E)-1-(3-Fluoro-4-(3-(4-fluorophenyl)-4-oxo-3,4-dihydrophthalazin-1-yl)phenyl)-N-methylmethanimine Oxide] | 143
8 | CC(C)/[N+]([O-])=C\c1ccc(-c2nn(-c3ccc(F)cc3)c(=O)c3ccccc23)c(F)c1 [Example 39, (E)-1-(3-Fluoro-4-(3-(4-fluorophenyl)-4-oxo-3,4-dihydrophthalazin-1-yl)phenyl)-N-isopropylmethanimine Oxide] | 106
9 | C/[N+]([O-])=C/c1ccccc1-c1nn(-c2ccc(F)cc2)c(=O)c2ccccc12 [Example 40, (Z)-1-(2-(3-(4-Fluorophenyl)-4-oxo-3,4-dihydrophthalazin-1-yl)phenyl)-N-methylmethanimine Oxide] | 160
10 | CC(C)/[N+]([O-])=C/c1ccccc1-c1nn(-c2ccc(F)cc2)c(=O)c2ccccc12 [Example 41, (Z)-1-(2-(3-(4-Fluorophenyl)-4-oxo-3,4-dihydrophthalazin-1-yl)phenyl)-N-isopropyl Methanimine Oxide] | 129
11 | CC(C)(C)/[N+]([O-])=C/c1ccccc1-c1nn(-c2ccc(F)cc2)c(=O)c2ccccc12 [Example 42, (Z)—N-tert-Butyl-1-(2-(3-(4-fluorophenyl)-4-oxo-3,4-dihydrophthalazin-1-yl)phenyl)methanimine Oxide] | 161
12 | CC(C)(C)/[N+]([O-])=C/c1cccc(-c2nn(-c3ccc(F)cc3)c(=O)c3ccccc23)c1 [Example 43, (Z)—N-tert-Butyl-1-(3-(3-(4-fluorophenyl)-4-oxo-3,4-dihydrophthalazin-1-yl)phenyl)methanimine Oxide] | 205
13 | O=c1c2ccccc2c(-c2cccc(/C=[N+](\[O-])Cc3ccccc3)c2)nn1-c1ccc(F)cc1 [Example 44, (Z)—N-Benzyl-1-(3-(3-(4-fluorophenyl)-4-oxo-3,4-dihydrophthalazin-1-yl)phenyl)methanimine Oxide] | 142
14 | C/[N+]([O-])=C/c1ccc(-c2nn(-c3ccc(F)cc3)c(=O)c3ccccc23)s1 [Example 45, (Z)-1-(5-(3-(4-Fluorophenyl)-4-oxo-3,4-dihydrophthalazin-1-yl)thiophen-2-yl)-N-methylmethanimine Oxide] | 195
15 | CC(C)/[N+]([O-])=C/c1ccc(-c2nn(-c3ccc(F)cc3)c(=O)c3ccccc23)s1 [Example 46, (Z)-1-(5-(3-(4-Fluorophenyl)-4-oxo-3,4-dihydrophthalazin-1-yl)thiophen-2-yl)-N-isopropylmethanimine Oxide] | 154
16 | CC(C)(C)/[N+]([O-])=C/c1ccc(-c2nn(-c3ccc(F)cc3)c(=O)c3ccccc23)s1 [Example 47, (Z)—N-tert-Butyl-1-(5-(3-(4-fluorophenyl)-4-oxo-3,4-dihydrophthalazin-1-yl)thiophen-2-yl)methanimine Oxide] | 132
17 | CC(C)/[N+]([O-])=C/c1ccc(-c2nn(-c3ccc(F)cc3)c(=O)c3ccccc23)o1 [Example 48, (Z)-1-(5-(3-(4-Fluorophenyl)-4-oxo-3,4-dihydrophthalazin-1-yl)furan-2-yl)-N-isopropylmethanimine Oxide] | 107
18 | COc1ccc(-c2nn(-c3ccc(F)cc3)c(=O)c3ccccc23)cc1/C=[N+](\[O-])C(C)(C)C [Example 49, (Z)—N-tert-Butyl-1-(5-(3-(4-fluorophenyl)-4-oxo-3,4-dihydrophthalazin-1-yl)-2-methoxyphenyl)methan Imine Oxide] | 107
19 | COc1ccc(-c2nn(-c3ccc(F)cc3)c(=O)c3ccccc23)cc1/C=[N+](\[O-])Cc1ccccc1 [Example 50, (Z)—N-Benzyl-1-(5-(3-(4-fluorophenyl)-4-oxo-3,4-dihydrophthalazin-1-yl)-2-methoxyphenyl)methanimine Oxide] | 105
20 | C/[N+]([O-])=C/c1cc(-c2nn(-c3ccc(F)cc3)c(=O)c3ccccc23)ccc1F [Example 51, (Z)-1-(2-Fluoro-5-(3-(4-fluorophenyl)-4-oxo-3,4-dihydrophthalazin-1-yl)phenyl)-N-methylmethanimine Oxide] | 139
21 | CC(C)/[N+]([O-])=C/c1cc(-c2nn(-c3ccc(F)cc3)c(=O)c3ccccc23)ccc1F [Example 52, (Z)-1-(2-Fluoro-5-(3-(4-fluorophenyl)-4-oxo-3,4-dihydrophthalazin-1-yl)phenyl)-N-isopropylmethanimine Oxide] | 172
22 | CC(C)(C)/[N+]([O-])=C/c1cc(-c2nn(-c3ccc(F)cc3)c(=O)c3ccccc23)ccc1F [Example 53, (Z)—N-tert-Butyl-1-(2-fluoro-5-(3-(4-fluorophenyl)-4-oxo-3,4-dihydrophthalazin-1-yl)phenyl) Methanimine Oxide] | 172
23 | O=c1c2ccccc2c(-c2ccc(F)c(/C=[N+](\[O-])Cc3ccccc3)c2)nn1-c1ccc(F)cc1 [Example 54, (Z)—N-Benzyl-1-(2-fluoro-5-(3-(4-fluorophenyl)-4-oxo-3,4-dihydrophthalazin-1-yl)phenyl) Methanimine Oxide] | 161
24 | C/[N+]([O-])=C/c1ccc(F)c(-c2nn(-c3ccc(F)cc3)c(=O)c3ccccc23)c1 [Example 55, (Z)-1-(4-Fluoro-3-(3-(4-fluorophenyl)-4-oxo-3,4-dihydrophthalazin-1-yl)phenyl)-N-methylmethanimine Oxide] | 151
25 | CC(C)/[N+]([O-])=C/c1ccc(F)c(-c2nn(-c3ccc(F)cc3)c(=O)c3ccccc23)c1 [Example 56, (Z)-1-(4-Fluoro-3-(3-(4-fluorophenyl)-4-oxo-3,4-dihydrophthalazin-1-yl)phenyl)-N-isopropylmethanimine Oxide] | 115
26 | CC(C)(C)/[N+]([O-])=C/c1ccc(F)c(-c2nn(-c3ccc(F)cc3)c(=O)c3ccccc23)c1 [Example 57, (Z)—N-tert-Butyl-1-(4-fluoro-3-(3-(4-fluorophenyl)-4-oxo-3,4-dihydrophthalazin-1-yl)phenyl) Methanimine Oxide] | 149

Same assay, conditions: compound at 10 μM; fluorescence relative to the group without compound treatment (positive control group); 10 µM

Row | SMILES | Sirt6 Activity (% activity, 10 μM) [% activity]
27 | CC(C)/[N+]([O-])=C/c1cccc(-c2nn(-c3ccc(F)cc3)c(=O)c3ccccc23)c1 [Example 37, (Z)-1-(3-(3-(4-Fluorophenyl)-4-oxo-3,4-dihydrophthalazin-1-yl)phenyl)-N-isopropyl methanimine Oxide] | 126
